According to paper PMC9090415, “Discovery of small molecule inhibitors of Plasmodium falciparum apicoplast DNA polymerase” (Journal of Enzyme Inhibition and Medicinal Chemistry, 2022):

Target: P. falciparum apicoplast DNA polymerase (Pf-apPOL) (Plasmodium falciparum, UniProt Q8ILY1)
Test: Fluorescence-based high-throughput DNA polymerase assay (molecular beacon), primary screen and dose-response
Type: biochemical
Experimental: The HT assay employs a molecular beacon, a stem-loop DNA template with a Cy3 dye and the Black Hole Quencher on the 3′ and 5′ ends of the DNA, respectively. Pf-apPOL concentration is based on a calculated absorptivity of ε280 = 56750 M^−1 cm^−1. Reactions were carried out at 25 °C, using Corning 3575 […] (well-volume, 20 µL). Assays testing for compound inhibition composed of reaction buffer (pH 7.9 in 50 mM potassium acetate, 20 mM Tris-acetate and 10 mM magnesium acetate), Pf-apPOL (20 nM), DNA substrate (20 nM), dNTPs (6 µM), and compound (10 µM in DMSO). The DNA and nucleotide substrates (dNTPs) were at concentrations of 20 nM and 6 µM, respectively, in the assay. Pf-apPOL was incubated in the reaction buffer with dNTPs and the compound of interest (10 µM, in the assay) at 25 °C for 10 min. The DNA substrate was then added and the reaction was allowed to proceed for 90 min at 25 °C.
Each assay plate contained 16 negative controls (no Pf-apPOL, DMSO present) and 16 positive controls (Pf-apPOL present, no DMSO). The fluorescence of each well was determined using a BioTek Synergy Neo fluorescence plate reader using excitation and emission wavelengths of 555 and 570 nm, respectively.
In the above, Min is the average of fluorescence emission of the negative controls (substrate only), Max the average fluorescence emission from the positive controls (enzyme + substrate), and Test the emission from the assays in the presence of compounds (enzyme + compound + substrates). […] […] The IC50 of each compound was determined using Equation (2): (2) IC50= Vmax/(1+ (I/IC50)^n)
In the above, n measures cooperativity, with n > 1 indicating synergistic binding of more than a single molecule of the compound.
To identify apPOL inhibitors we utilised our previously developed high-throughput DNA polymerase assay. The HT assay is based on a molecular beacon DNA template that forms a stem-loop with a Cy3 dye and the Black Hole Quencher on the 3′ and 5′ ends of the DNA, respectively. DNA polymerase activity extends an annealed primer through the stem region, displacing the fluorophore from the quencher, thereby increasing its fluorescence (Figure 1(A)). The assay accurately recapitulates the kinetic behaviour of apPOL, as measured through more conventional low-throughput gel-based assays. The Z′ factor for the assay described here was 0.9 across all plates (data not shown).
Figure 1. High-throughput screening. (A) The fluorescent-based DNA polymerase assay used to screen the compound libraries. The DNA template strand is a hairpin loop with a primer annealed to the loop. The 3’ end of the primer is 11 bases away from the 6 bp duplex. Strand displacement activity of the DNA polymerase separates the Cy3 dye from the Black hole quencher leading to an increase in fluorescent signal. (B) The high-throughput assay workflow. The DNA polymerase is incubated with […] compound for 10 min prior to addition of the hairpin substrate. The reaction is quenched at 3 different time points and the fluorescent signal is measured and % inhibition is determined using the provided equation.

Chain of P. falciparum apicoplast DNA polymerase (Pf-apPOL) (Q8ILY1 entry or part of it): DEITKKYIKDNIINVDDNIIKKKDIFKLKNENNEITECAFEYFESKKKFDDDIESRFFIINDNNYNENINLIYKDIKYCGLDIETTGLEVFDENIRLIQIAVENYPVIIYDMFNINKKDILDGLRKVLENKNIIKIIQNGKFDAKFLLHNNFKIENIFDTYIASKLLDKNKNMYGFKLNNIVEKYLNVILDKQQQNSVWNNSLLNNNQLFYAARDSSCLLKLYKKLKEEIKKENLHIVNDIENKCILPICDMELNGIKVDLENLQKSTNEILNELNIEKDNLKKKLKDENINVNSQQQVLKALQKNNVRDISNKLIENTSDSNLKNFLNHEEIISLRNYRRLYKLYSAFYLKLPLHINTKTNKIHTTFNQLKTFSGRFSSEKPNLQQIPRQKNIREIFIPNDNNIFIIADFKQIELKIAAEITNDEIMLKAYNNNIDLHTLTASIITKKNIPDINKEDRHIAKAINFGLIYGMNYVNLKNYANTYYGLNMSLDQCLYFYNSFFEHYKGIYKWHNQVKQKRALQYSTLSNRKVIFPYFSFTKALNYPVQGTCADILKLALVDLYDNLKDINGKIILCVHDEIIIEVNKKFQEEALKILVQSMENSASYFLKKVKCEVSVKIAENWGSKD

Oc1cccc2ccc(/C=C/c3ccc4c(c3)OCO4)nc12 [KU0025984]
% inhibition Apo pol 10' (DRC-1; 10'; concentration 2.5): -0.2183%
% inhibition Apo pol 10' (DRC-1; 10'; concentration 5): 11.208%
% inhibition Apo pol 10' (DRC-1; 10'; concentration 10): 38.8453%
% inhibition Apo pol 10' (DRC-1; 10'; concentration 20): 79.6836%
% inhibition Apo pol 10' (DRC-1; 10'; concentration 40): 89.9069%
% inhibition Apo pol 10' (DRC-1; 10'; concentration 80): 93.1389%
% inhibition Apol 90' (DRC-1; 90'; concentration 2.5): -7.534%
% inhibition Apol 90' (DRC-1; 90'; concentration 5): 4.814%
% inhibition Apol 90' (DRC-1; 90'; concentration 10): 24.6628%
% inhibition Apol 90' (DRC-1; 90'; concentration 20): 70.7764%
% inhibition Apol 90' (DRC-1; 90'; concentration 40): 83.7672%
% inhibition Apol 90' (DRC-1; 90'; concentration 80): 87.8493%
% inhibition apPOL 180' (DRC-1; 180'; concentration 2.5): -11.2426%
% inhibition apPOL 180' (DRC-1; 180'; concentration 5): -1.027%
% inhibition apPOL 180' (DRC-1; 180'; concentration 10): 13.0398%
% inhibition apPOL 180' (DRC-1; 180'; concentration 20): 59.792%
% inhibition apPOL 180' (DRC-1; 180'; concentration 40): 76.8882%
% inhibition apPOL 180' (DRC-1; 180'; concentration 80): 82.4453%
% inhibition Apo pol 5' (DRC-2, 5', concentration 2.5 (unit not given)): 14%
% inhibition Apol 40' (DRC-2, 40', concentration 2.5 (unit not given)): 14%
% inhibition ApPOL 90' (DRC-2, 90', concentration 20 (unit not given)): 70%
% inhibition apPOL 180' (DRC-2, 180', concentration 5 (unit not given)): 12%
% inhibition apPOL 180' (DRC-2, 180', concentration 40 (unit not given)): 70%
% inhibition Apo pol 5' (DRC-2; 5'; concentration 2.5): 14%
% inhibition Apo pol 5' (DRC-2; 5'; concentration 5): 21%
% inhibition Apo pol 5' (DRC-2; 5'; concentration 10): 38%
% inhibition Apo pol 5' (DRC-2; 5'; concentration 20): 50%
% inhibition Apo pol 5' (DRC-2; 5'; concentration 40): 52%
% inhibition Apo pol 5' (DRC-2; 5'; concentration 80): 53%
% inhibition Apol 40' (DRC-2; 40'; concentration 2.5): 14%
% inhibition Apol 40' (DRC-2; 40'; concentration 5): 25%
% inhibition Apol 40' (DRC-2; 40'; concentration 10): 47%
% inhibition Apol 40' (DRC-2; 40'; concentration 20): 69%
% inhibition Apol 40' (DRC-2; 40'; concentration 40): 71%
% inhibition Apol 40' (DRC-2; 40'; concentration 80): 74%
% inhibition ApPOL 90' (DRC-2; 90'; concentration 2.5): 12%
% inhibition ApPOL 90' (DRC-2; 90'; concentration 2.5 (unit not given)): 12%
% inhibition ApPOL 90' (DRC-2; 90'; concentration 5): 24%
% inhibition ApPOL 90' (DRC-2; 90'; concentration 10): 45%
% inhibition ApPOL 90' (DRC-2; 90'; concentration 20): 70%
% inhibition ApPOL 90' (DRC-2; 90'; concentration 40): 72%
% inhibition ApPOL 90' (DRC-2; 90'; concentration 80): 77%
% inhibition apPOL 180' (DRC-2; 180'; concentration 2.5): -0.452%
% inhibition apPOL 180' (DRC-2; 180'; concentration 5): 12%
% inhibition apPOL 180' (DRC-2; 180'; concentration 10): 35%
% inhibition apPOL 180' (DRC-2; 180'; concentration 20): 66%
% inhibition apPOL 180' (DRC-2; 180'; concentration 40): 70%
% inhibition apPOL 180' (DRC-2; 180'; concentration 80): 78%
DNA Pol (primary screen value of the 186 hits; unit not given; 90 min, 10 µM): 45
DNA Pol (primary screen value, head "DNA Pol", unit not given; 90 min, 10 µM): 45

O=C(Nc1ncc([N+](=O)[O-])s1)c1ccc2c(c1)C(=O)N(N1C(=O)c3ccccc3C1=O)C2=O [KU0026378]
DNA Pol ('DNA Pol'; screening value, unit not given; 90 min, 10 µM): 40
% inhibition Apo pol 10' (DRC-1; 10'; concentration 2.5): 7.75%
% inhibition Apo pol 10' (DRC-1; 10'; concentration 5): 18.061%
% inhibition Apo pol 10' (DRC-1; 10'; concentration 10): 26.4428%
% inhibition Apo pol 10' (DRC-1; 10'; concentration 20): 47.1491%
% inhibition Apo pol 10' (DRC-1; 10'; concentration 40): 69.5136%
% inhibition Apo pol 10' (DRC-1; 10'; concentration 80): 81.7904%
% inhibition Apol 90' (DRC-1; 90'; concentration 2.5): 0.8654%
% inhibition Apol 90' (DRC-1; 90'; concentration 5): 10.2523%
% inhibition Apol 90' (DRC-1; 90'; concentration 10): 17.1111%
% inhibition Apol 90' (DRC-1; 90'; concentration 20): 31.377%
% inhibition Apol 90' (DRC-1; 90'; concentration 40): 49.9666%
% inhibition Apol 90' (DRC-1; 90'; concentration 80): 63.8905%
% inhibition apPOL 180' (DRC-1; 180'; concentration 2.5): -2.09%
% inhibition apPOL 180' (DRC-1; 180'; concentration 5): 6.201%
% inhibition apPOL 180' (DRC-1; 180'; concentration 10): 13.1954%
% inhibition apPOL 180' (DRC-1; 180'; concentration 20): 24.5599%
% inhibition apPOL 180' (DRC-1; 180'; concentration 40): 40.1737%
% inhibition apPOL 180' (DRC-1; 180'; concentration 80): 53.133%
% inhibition Apo pol 5' (DRC-2, 5', concentration 2.5): 8%
% inhibition Apo pol 5' (DRC-2, 5', concentration 5): 8.46%
% inhibition Apo pol 5' (DRC-2, 5', concentration 10): 25%
% inhibition Apo pol 5' (DRC-2, 5', concentration 20): 36%
% inhibition Apo pol 5' (DRC-2, 5', concentration 40): 51%
% inhibition Apo pol 5' (DRC-2, 5', concentration 80): 55%
% inhibition Apol 40' (DRC-2, 40', concentration 2.5): 9%
% inhibition Apol 40' (DRC-2, 40', concentration 5): 9%
% inhibition Apol 40' (DRC-2, 40', concentration 10): 26%
% inhibition Apol 40' (DRC-2, 40', concentration 20): 40%
% inhibition Apol 40' (DRC-2, 40', concentration 40): 62%
% inhibition Apol 40' (DRC-2, 40', concentration 80): 73%
% inhibition ApPOL 90' (DRC-2, 90', concentration 2.5): 8%
% inhibition ApPOL 90' (DRC-2, 90', concentration 5): 9%
% inhibition ApPOL 90' (DRC-2, 90', concentration 10): 26%
% inhibition ApPOL 90' (DRC-2, 90', concentration 20): 39%
% inhibition ApPOL 90' (DRC-2, 90', concentration 40): 63%
% inhibition ApPOL 90' (DRC-2, 90', concentration 80): 75%
% inhibition apPOL 180' (DRC-2, 180', concentration 2.5): 6%
% inhibition apPOL 180' (DRC-2, 180', concentration 5): 9%
% inhibition apPOL 180' (DRC-2, 180', concentration 10): 24%
% inhibition apPOL 180' (DRC-2, 180', concentration 20): 36%
% inhibition apPOL 180' (DRC-2, 180', concentration 40): 59%
% inhibition apPOL 180' (DRC-2, 180', concentration 80): 74%
% inhibition Apo pol 5' (conc 2.5 (unit not given); 5'; DRC-2): 8%
% inhibition Apol 40' (conc 2.5 (unit not given); 40'; DRC-2): 9%
% inhibition ApPOL 90' (conc 2.5 (unit not given); 90'; DRC-2): 8%
% inhibition Apol 40' (conc 5 (unit not given); 40'; DRC-2): 9%
% inhibition ApPOL 90' (conc 5 (unit not given); 90'; DRC-2): 9%
% inhibition apPOL 180' (conc 5 (unit not given); 180'; DRC-2): 9%
% inhibition Apol 40' (conc 10 (unit not given); 40'; DRC-2): 26%
% inhibition ApPOL 90' (conc 10 (unit not given); 90'; DRC-2): 26%
% inhibition Apo pol 5' (conc 20 (unit not given); 5'; DRC-2): 36%
% inhibition apPOL 180' (conc 20 (unit not given); 180'; DRC-2): 36%
DNA Pol (primary screen hit value, DNA Pol (186 hits); 90 min, 10 µM): 40
